According to EP2697230B1, “COMPOUNDS FOR THE TREATMENT OF HEPATITIS C” (priority 2011, dated 2012):
Where two headings read alike, the source gives them in different places.

Tested on: HCV pseudoparticles, genotype 1a HCV E1 and E2 envelope (H77C isolate)
Test: HCV pseudoparticle infection assay (luciferase reporter, Huh7 cells)
Type: cell-based
[1] = Hepatitis C virus, Huh-7, 48 h, read-out: EC50 (nM) 1a (H77C), class symbol, HCV pseudoparticles genotype 1a (H77C), luciferase 2 days after infection
[2] = Hepatitis C virus, Huh-7, 48 h, read-out: EC50 (nM) 1a (H77C), numeric value, HCV pseudoparticles genotype 1a (H77C), luciferase 2 days after infection

SMILES | EC50 [1] | EC50 [2] | EC50 (class symbol, HCV pseudoparticles genotype 1a (H77C), luciferase 2 days after infection, read-out: EC50 (nM) 1a (H77C))
CC(C)C(=O)N1CCCCNC(=O)c2ccc(cc2)Nc2nc(nc(OCC(F)(F)F)n2)NCc2ccc(cc2)OCC1 [Example 4004] | 0.1 to 100 nM | – | –
CC(C)(C)C(=O)N1CCCCNC(=O)c2ccc(cc2)Nc2nc(nc(OCC(F)(F)F)n2)NCc2ccc(cc2)OCC1 [Example 4005] | 0.1 to 100 nM | – | –
CNC(=O)N1CCCCNC(=O)c2ccc(cc2)Nc2nc(nc(OCC(F)(F)F)n2)NCc2ccc(cc2)OCC1 [Example 4006] | 0.1 to 100 nM | – | –
CCNC(=O)N1CCCCNC(=O)c2ccc(cc2)Nc2nc(nc(OCC(F)(F)F)n2)NCc2ccc(cc2)OCC1 [Example 4007] | 0.1 to 100 nM | – | –
CC(C)NC(=O)N1CCCCNC(=O)c2ccc(cc2)Nc2nc(nc(OCC(F)(F)F)n2)NCc2ccc(cc2)OCC1 [Example 4008] | 0.1 to 100 nM | – | –
CC(C)(C)NC(=O)N1CCCCNC(=O)c2ccc(cc2)Nc2nc(nc(OCC(F)(F)F)n2)NCc2ccc(cc2)OCC1 [Example 4009] | 0.1 to 100 nM | 8.47 nM | –
COC(=O)N1CCCCNC(=O)c2ccc(cc2)Nc2nc(nc(OCC(F)(F)F)n2)NCc2ccc(cc2)OCC1 [Example 4013] | 0.1 to 100 nM | – | –
CCOC(=O)N1CCCCNC(=O)c2ccc(cc2)Nc2nc(nc(OCC(F)(F)F)n2)NCc2ccc(cc2)OCC1 [Example 4014] | 0.1 to 100 nM | – | –
CC(C)OC(=O)N1CCCCNC(=O)c2ccc(cc2)Nc2nc(nc(OCC(F)(F)F)n2)NCc2ccc(cc2)OCC1 [Example 4015] | 0.1 to 100 nM | – | –
CC(C)(C)OC(=O)N1CCCCNC(=O)c2ccc(cc2)Nc2nc(nc(OCC(F)(F)F)n2)NCc2ccc(cc2)OCC1 [Example 4016] | 0.1 to 100 nM | – | –
O=C1NCCCNCCCCOc2ccc(cc2)CNc2nc(nc(OCC(F)(F)F)n2)Nc2ccc1cc2 [Example 4017] | 0.1 to 100 nM | – | –
CC(=O)N1CCCCOc2ccc(cc2)CNc2nc(nc(OCC(F)(F)F)n2)Nc2ccc(cc2)C(=O)NCCC1 [Example 4018] | 0.1 to 100 nM | – | –
CCC(=O)N1CCCCOc2ccc(cc2)CNc2nc(nc(OCC(F)(F)F)n2)Nc2ccc(cc2)C(=O)NCCC1 [Example 4019] | 0.1 to 100 nM | – | –
CC(C)C(=O)N1CCCCOc2ccc(cc2)CNc2nc(nc(OCC(F)(F)F)n2)Nc2ccc(cc2)C(=O)NCCC1 [Example 4020] | 0.1 to 100 nM | – | –
COC(=O)N1CCCCOc2ccc(cc2)CNc2nc(nc(OCC(F)(F)F)n2)Nc2ccc(cc2)C(=O)NCCC1 [Example 4023] | 0.1 to 100 nM | – | –
CCOC(=O)N1CCCCOc2ccc(cc2)CNc2nc(nc(OCC(F)(F)F)n2)Nc2ccc(cc2)C(=O)NCCC1 [Example 4024] | 0.1 to 100 nM | – | –
CC(C)OC(=O)N1CCCCOc2ccc(cc2)CNc2nc(nc(OCC(F)(F)F)n2)Nc2ccc(cc2)C(=O)NCCC1 [Example 4025] | 0.1 to 100 nM | – | –
CC(C)(C)OC(=O)N1CCCCOc2ccc(cc2)CNc2nc(nc(OCC(F)(F)F)n2)Nc2ccc(cc2)C(=O)NCCC1 [Example 4026] | 0.1 to 100 nM | – | –
CNC(=O)N1CCCCOc2ccc(cc2)CNc2nc(nc(OCC(F)(F)F)n2)Nc2ccc(cc2)C(=O)NCCC1 [Example 4030] | 0.1 to 100 nM | – | –
CCNC(=O)N1CCCCOc2ccc(cc2)CNc2nc(nc(OCC(F)(F)F)n2)Nc2ccc(cc2)C(=O)NCCC1 [Example 4031] | 0.1 to 100 nM | – | –
CC(C)NC(=O)N1CCCCOc2ccc(cc2)CNc2nc(nc(OCC(F)(F)F)n2)Nc2ccc(cc2)C(=O)NCCC1 [Example 4032] | 0.1 to 100 nM | – | –
CC(C)(C)NC(=O)N1CCCCOc2ccc(cc2)CNc2nc(nc(OCC(F)(F)F)n2)Nc2ccc(cc2)C(=O)NCCC1 [Example 4034] | 0.1 to 100 nM | – | –
COCC(=O)N1CCCCNC(=O)c2ccc(cc2)Nc2nc(nc(OCC(F)(F)F)n2)NCc2ccc(cc2)OCC1 [Example 4035] | 0.1 to 100 nM | 4.37 nM | –
O=C1NCCCNCCCOc2ccc(cc2)C2(CC2)Nc2nc(nc(OCC(F)(F)F)n2)Nc2ccc1cc2 [Example 5001] | – | – | 0.1 to 100 nM
CNC(=O)N1CCCCNC(=O)c2ccc(cc2)Nc2nc(nc(OCC(F)(F)F)n2)NC2(CC2)c2ccc(cc2)OCCC1 [Example 5004] | 0.1 to 100 nM | – | –
CC(C)(C)OC(=O)N1CCCCNC(=O)c2ccc(cc2)Nc2nc(nc(OCC(F)(F)F)n2)NC2(CC2)c2ccc(cc2)OCCC1 [Example 5006] | 0.1 to 100 nM | – | –
